Source: ChEMBL document CHEMBL1201862, “PubChem BioAssay data set” (2004)
Where “and” joins values, the source holds several entries; their conditions need not be identical. Identical values can stand only once.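 Assay format: 96-well plates, 48-hour exposure. Abbreviation: GI50, concentration required for 50% inhibition of growth.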 Calls of active or inactive are those of the source. No stated cut-off is given here; in the data, active = GI50 up to about 1.1 µM and inactive = higher.

Columns and labels:
Assay in all cases: NCI anticancer screen, dose series, 48 h
CAKI-1 = tested on: CAKI-1
NCI-H460 = tested on: NCI-H460
OVCAR-3 = tested on: OVCAR-3
TK-10 = tested on: TK-10
NCI-H522 = tested on: NCI-H522
IGROV-1 = tested on: IGROV-1
OVCAR-5 = tested on: OVCAR-5
K562 = tested on: K562
NCI-H226 = tested on: NCI-H226
PC-3 = tested on: PC-3
KM12 = tested on: KM12
DU-145 = tested on: DU-145
786-0 = tested on: 786-0
SNB-19 = tested on: SNB-19
SF-268 = tested on: SF-268
RPMI-8226 = tested on: RPMI-8226
MDA-MB-435 = tested on: MDA-MB-435
MDA-MB-231 = tested on: MDA-MB-231

Measured: GI50

CC(=O)c1c(-c2cccc3ccccc23)c(C#N)c(=S)n(C2OC(CO)C(O)C(O)C2O)c1C (stereo not drawn)
inactive: CAKI-1 53.1 µM | NCI-H460 > 100 µM | OVCAR-3 > 100 µM | TK-10 > 100 µM | NCI-H522 > 100 µM | IGROV-1 > 100 µM | OVCAR-5 > 100 µM | K562 43.9 µM and 71.6 µM | NCI-H226 > 100 µM | PC-3 > 100 µM | KM12 79.1 µM | DU-145 > 100 µM | 786-0 > 100 µM | SNB-19 59.7 µM | SF-268 > 100 µM | RPMI-8226 53.2 µM

COc1ccc(N2C(=O)/C(=C\c3ccccc3)SC2c2cc(OC)c(OC)c(OC)c2)cc1 (stereo not drawn)
inactive: CAKI-1 46.8 µM | MDA-MB-435 20 µM | TK-10 > 100 µM | NCI-H522 14.2 µM | OVCAR-5 > 100 µM | K562 28.5 µM | NCI-H226 > 100 µM | MDA-MB-231 88.5 µM | PC-3 39.2 µM | KM12 44.3 µM | SNB-19 > 100 µM | SF-268 > 100 µM

CCc1cc2c(c3c1CCCC3)CC1(Cc3ccc(C(=O)OC)cc3C1)C2 (stereo not drawn)
inactive: NCI-H460 > 100 µM | OVCAR-3 > 100 µM | MDA-MB-435 52.6 µM | TK-10 > 100 µM | NCI-H522 > 100 µM | IGROV-1 > 100 µM | OVCAR-5 > 100 µM | K562 40.3 µM | NCI-H226 > 100 µM | MDA-MB-231 > 100 µM | PC-3 65 µM | KM12 > 100 µM | DU-145 > 100 µM | 786-0 > 100 µM | SNB-19 > 100 µM | SF-268 > 100 µM | RPMI-8226 44.6 µM

CCOc1cc(NC(C)=O)ccc1C(=O)NN1C(=O)/C(=C/c2cc(OC)c(OC)c(OC)c2)N=C1c1ccccc1
inactive: CAKI-1 > 100 µM | NCI-H460 91.6 µM | OVCAR-3 > 100 µM | MDA-MB-435 > 100 µM | NCI-H522 28.3 µM | IGROV-1 > 100 µM | OVCAR-5 > 100 µM | K562 > 100 µM | NCI-H226 > 100 µM | KM12 37.2 µM | 786-0 > 100 µM | SNB-19 > 100 µM | SF-268 86.9 µM

CCN(CC)C(=S)SS(=O)(=O)c1cccc(N)c1
inactive: CAKI-1 > 100 µM | NCI-H460 > 100 µM | OVCAR-3 > 100 µM | MDA-MB-435 > 100 µM | TK-10 > 100 µM | NCI-H522 > 100 µM | OVCAR-5 > 100 µM | K562 > 100 µM | NCI-H226 > 100 µM | MDA-MB-231 > 100 µM | KM12 > 100 µM | DU-145 > 100 µM | 786-0 > 100 µM | SNB-19 > 100 µM | SF-268 > 100 µM | RPMI-8226 > 100 µM

Cc1ccc2nc(SCC(=O)N/N=C3\C(=O)Nc4ccccc43)n(-c3ccccc3)c(=O)c2c1
inactive: CAKI-1 18.6 µM | NCI-H460 15.6 µM | OVCAR-3 18.8 µM | MDA-MB-435 16.5 µM | TK-10 15.5 µM | OVCAR-5 15.8 µM | K562 23.7 µM | NCI-H226 16.2 µM | MDA-MB-231 10.9 µM | PC-3 17.1 µM | KM12 13.6 µM | DU-145 13.4 µM | 786-0 16 µM | SNB-19 17.5 µM | SF-268 13.7 µM | RPMI-8226 17.6 µM

Cc1ccc(NC=O)c(-c2c(N)[nH]c(=S)[nH]c2=O)c1
inactive: CAKI-1 > 100 µM | OVCAR-3 94.2 µM | MDA-MB-435 94 µM | TK-10 > 100 µM | NCI-H522 > 100 µM | IGROV-1 > 100 µM | OVCAR-5 > 100 µM | K562 > 100 µM | NCI-H226 > 100 µM | MDA-MB-231 > 100 µM | KM12 > 100 µM | DU-145 > 100 µM | 786-0 > 100 µM | SNB-19 > 100 µM | SF-268 > 100 µM | RPMI-8226 > 100 µM

N[C@@H]1C[C@H](N)c2c(Cl)sc(Cl)c21
inactive: CAKI-1 > 100 µM | NCI-H460 > 100 µM | OVCAR-3 > 100 µM | MDA-MB-435 > 100 µM | IGROV-1 > 100 µM | OVCAR-5 > 100 µM | K562 > 100 µM | NCI-H226 > 100 µM | MDA-MB-231 > 100 µM | PC-3 > 100 µM | KM12 > 100 µM | DU-145 > 100 µM | 786-0 > 100 µM | SNB-19 > 100 µM | RPMI-8226 > 100 µM

COc1cccc(/C=N/NC(=O)CN(C)C)c1O
inactive: CAKI-1 > 100 µM | NCI-H460 > 100 µM | OVCAR-3 > 100 µM | MDA-MB-435 > 100 µM | TK-10 > 100 µM | NCI-H522 > 100 µM | IGROV-1 > 100 µM | OVCAR-5 > 100 µM | K562 > 100 µM | NCI-H226 72.8 µM | PC-3 > 100 µM | KM12 > 100 µM | DU-145 > 100 µM | 786-0 > 100 µM | SNB-19 > 100 µM | SF-268 > 100 µM

CN/N=C(/Cc1occc(=O)c1O)C(=O)Nc1ccc(C)c(C)c1
inactive: CAKI-1 > 100 µM | NCI-H460 > 100 µM | OVCAR-3 > 100 µM | TK-10 > 100 µM | NCI-H522 > 100 µM | IGROV-1 > 100 µM | OVCAR-5 > 100 µM | K562 > 100 µM | NCI-H226 > 100 µM | KM12 > 100 µM | 786-0 > 100 µM | SNB-19 > 100 µM | SF-268 > 100 µM | RPMI-8226 > 100 µM

N#Cc1ccccc1NC(=O)C(=O)c1c(O)c2ccccc2oc1=O
inactive: CAKI-1 > 100 µM | NCI-H460 > 100 µM | OVCAR-3 > 100 µM | MDA-MB-435 > 100 µM | TK-10 > 100 µM | NCI-H522 > 100 µM | IGROV-1 > 100 µM | OVCAR-5 > 100 µM | K562 > 100 µM | NCI-H226 > 100 µM | MDA-MB-231 > 100 µM | PC-3 > 100 µM | KM12 > 100 µM | 786-0 > 100 µM | SNB-19 > 100 µM | SF-268 > 100 µM | RPMI-8226 > 100 µM

COc1ccc(C2SCC(=O)N2NC(=O)c2ccc(NC(C)=O)cc2)c(OC)c1 (stereo not drawn)
inactive: NCI-H460 > 100 µM | OVCAR-3 > 100 µM | MDA-MB-435 > 100 µM | TK-10 > 100 µM | IGROV-1 > 100 µM | OVCAR-5 > 100 µM | K562 > 100 µM | NCI-H226 > 100 µM | MDA-MB-231 > 100 µM | KM12 > 100 µM | DU-145 > 100 µM | 786-0 > 100 µM | SNB-19 > 100 µM | SF-268 > 100 µM | RPMI-8226 > 100 µM

CC1OC2OC3C(OCC(O)C3O)OC(=O)[C@]34CCC(C)(C)CC3C3=CCC5[C@@]6(C)C[C@H](O)[C@H](OC7OC(CO)C(O)C(O)C7OC7OCC(OC(=O)CC(C)(O)CC(=O)OC1C(O)C2O)C(O)C7O)[C@@](C)(CO)C6CC[C@@]5(C)[C@]3(C)CC4 (stereo partly drawn)
inactive: NCI-H460 11.6 µM | OVCAR-3 9.64 µM | MDA-MB-435 5.89 µM | TK-10 8.79 µM | NCI-H522 3.67 µM | IGROV-1 5.71 µM | OVCAR-5 2.66 µM | NCI-H226 14.9 µM | MDA-MB-231 9.23 µM | PC-3 2.17 µM | KM12 2.82 µM | DU-145 3.97 µM | 786-0 12.1 µM | SNB-19 6.22 µM | SF-268 2.45 µM | RPMI-8226 4.17 µM

CN(C)CCNC(=O)c1cccc2c(NCC(=O)O)c3ccccc3nc12
inactive: OVCAR-3 19.9 µM | MDA-MB-435 11.4 µM | TK-10 31 µM | NCI-H522 10.6 µM | IGROV-1 8.51 µM | OVCAR-5 13.5 µM | K562 14 µM | NCI-H226 4.82 µM | MDA-MB-231 14.7 µM | PC-3 10.5 µM | KM12 11.9 µM | DU-145 25.3 µM | 786-0 6.87 µM | SNB-19 6.49 µM | SF-268 11.5 µM | RPMI-8226 16.5 µM

CC(C)C[P+](c1ccccc1)(c1ccccc1)c1ccccc1
inactive: CAKI-1 10.5 µM | NCI-H460 5.89 µM | OVCAR-3 2.31 µM | MDA-MB-435 2.87 µM | TK-10 7.08 µM | NCI-H522 3.97 µM | IGROV-1 13.3 µM | OVCAR-5 73.6 µM | K562 2.28 µM | NCI-H226 8.79 µM | MDA-MB-231 31.8 µM | KM12 1.79 µM | DU-145 6.95 µM | 786-0 41.5 µM | SNB-19 9.35 µM | SF-268 10.3 µM
active: RPMI-8226 < 0.01 µM

CCOC(=O)Cc1csc2[n+]1C(=O)/C(=C/c1cccc(OC)c1O)S2
inactive: CAKI-1 59.2 µM | NCI-H460 41.9 µM | OVCAR-3 38.2 µM | MDA-MB-435 11.9 µM | TK-10 46.2 µM | IGROV-1 45.4 µM | OVCAR-5 > 100 µM | NCI-H226 > 100 µM | MDA-MB-231 51.5 µM | PC-3 40.8 µM | KM12 38.1 µM | DU-145 73.3 µM | 786-0 68.7 µM | SNB-19 50.9 µM

CCOC(=O)C1=CC(C)(C(=O)OCC)Nc2c(nc(OC)[nH]c2=O)N1 (stereo not drawn)
inactive: CAKI-1 > 10 µM | NCI-H460 > 10 µM | OVCAR-3 > 10 µM | TK-10 > 10 µM | NCI-H522 > 10 µM | IGROV-1 > 10 µM | OVCAR-5 > 10 µM | K562 > 10 µM | NCI-H226 > 10 µM | MDA-MB-231 > 10 µM | PC-3 > 10 µM | KM12 > 10 µM | DU-145 > 10 µM | 786-0 > 10 µM | SNB-19 > 10 µM | SF-268 > 10 µM | RPMI-8226 > 10 µM
